System: Atoh1-GFP positive hair cells and Sox2+ supporting cells in whole cochlea
Assay: Ex vivo whole cochlea culture, drug applied at the round window niche
Type: cell-based, mouse
Description: To culture the intact cochlea of P0–P1 mice, the entire otic capsule (cochlea and semicircular canals) was carefully dissected. Connective tissues and nerves were removed to clear the round window niche and the capsule was positioned with the round window facing up in a sterile 35 mm dish. A surgical sponge was employed to blot dry the interior of the round window niche, which was then filled with 2 μl of the formulated drug and applied with a small pipette tip. Following 2 h of drug treatment at 37°C with 5% CO2, the tissue was transferred to a 50 ml conical tube containing 10 ml medium (DMEM, 5%FBS, 5% horse serum and ampicillin) and the tube was sparged with 95% O2/5% CO2 for 5–10 min and incubated for 2 days at 37°C, rotating on a roller/rocker (SCILOGEX MX-T6-S Analog Tube Roller) at 15–17 rpm.
For whole-mount immunohistochemistry, whole cochleae were fixed (4% PFA) ON at 4°C, then incubated in primary antibodies (72 h, rocking at 4°C), goat anti-GFP polyclonal Ab (AbCam, ab6673) and rabbit anti-Sox2 polyclonal IgG (GenTex, GTX101506) in 4% normal donkey serum. Following extended washes (over 24 h), cochlea were incubated for 24 h in secondary antibodies donkey anti-goat Alexa 488 (Thermo Fisher, A11055) and donkey anti-rabbit Alexa 647 (Thermo Fisher, A31573) and extensively washed. The intact OC were then microdissected from cochleae and mounted on a coverslip for confocal imaging. A LSM 510 Confocal Microscope (Zeiss) utilizing 63X Zeiss Plan-APOCHROMAT DIC oil, 1.4NA and Zen 2009 LSM imaging software was used to optically scan mid-apex regions of OCs. Cellular quantification and image analysis computation were performed with Imaris 8.2.1 software (Bitplane).
To assess the permeability of the compounds across the round window membrane, a novel ex vivo model was devised to compare drug entry, after delivery to the exterior of the cochlear capsule, to resemble middle ear application. Specifically, CPD3 application was tested in organotypic culture of the entire otic capsule (Figure 4). CPD3, formulated at two different concentrations (1 and 7.2 mM) in 70% PEG400 or 10% POX338 (POX), was applied at the round window niche. Drug formulations were allowed to absorb briefly into the cochlea prior to the 48 h culture. […] For the POX338 formulation, we further characterized the number of Sox2+ supporting cells in the sensory epithelium. […] Also in this model, we observed a trend for new hair cells to be greater toward the apex than the base in agreement with the results obtained with the OC organotypic culture and indicated GSI exposure was throughout the entire length of the organ of Corti length during the culture period.
FIGURE 4 Hair cell quantification in whole cochlea culture. (A) Hair cell counts from whole cochea culture with directly applied CPD3 in 70% PEG400 (1 mM or 7.2 mM). Atoh1-GFP positive hair cells in different organ of Corti regions (B, base; MB, mid-base; MA, mid-apex; A, apex) (n = 3 independent experiments). (B) Hair cell counts from whole cochea culture with directly applied CPD3 in 10% POX338 (1 mM;, or 7.2 mM). Atoh1-GFP positive hair cells in different organ of Corti regions (B, base; MB, mid-base; MA, mid-apex; A, apex; n = 3 independent experiments). (C) Immunostained inner ear sensory epithelia following whole cochlea culture with direct application of CPD3 (1 and 7.2 mM; Vehicle, 10% POX338). 3D projections of confocal stacks at mid-base region of organ of Corti, Atoh1-GFP (hair cells, green) and Sox2 (supporting cells, red). (D) Quantification of Atoh1-GFP-positive (green dots) and Sox2-positive cells (red dots) after direct application of CPD3 (1 or 7.2 mM), or vehicle formulated in 10% POX338. (*p < 0.05; ***p < 0.001, one-way ANOVA with multiple comparison; n = 12; 3 independent experiments; all regions-base to apex).

Question: With `COc1ccc2c(c1)N1CCC(C)(C)C1=CC(=O)[C@H]2NC(=O)[C@H](C)NC(=O)CCC(F)(F)F` [CPD3] as the compound, how does the “Increase in Atoh1+ hair cells above vehicle-only” value (from here on “Increase”) (1 mM in 10% POX338) read?
Answer: 23.3%

Question: What about the “Atoh1+ hair cells” value (1 mM in 10% POX338, 48 h culture) of the same compound?
Answer: 72 ± 11 hair cells/100 μm

Question: What about the “Change in Atoh1+ hair cells above vehicle-only” value (1 mM in 70% PEG400) of the same compound?
Answer: no change

Question: And the “Atoh1+ hair cells” value (1 mM in 70% PEG400, 48 h culture)?
Answer: 54 ± 7 hair cells/100 μm

Question: And the “Increase” value (7.2 mM in 10% POX338)?
Answer: 54.4%

Question: And the “Atoh1+ hair cells” value (7.2 mM in 10% POX338, 48 h culture)?
Answer: 90 ± 20 hair cells/100 μm

Question: What about the “Increase” value (7.2 mM in 70% PEG400) of the same compound?
Answer: 60.1%

Question: What about the “Atoh1+ hair cells” value (7.2 mM in 70% PEG400, 48 h culture) of the same compound?
Answer: 87 ± 15 hair cells/100 μm

Question: And the “Supporting cell (Sox2+) counts” value (10% POX338 formulation, p < 0.001)?
Answer: significant decrease

Reference: paper PMC8414802, “Hair Cell Generation in Cochlear Culture Models Mediated by Novel γ-Secretase Inhibitors” (Frontiers in Cell and Developmental Biology, 2021)
